The target in this test is T1, Gonadotropin-releasing hormone receptor (Homo sapiens, UniProt P30968).
T1 sequence (P30968 whole entry): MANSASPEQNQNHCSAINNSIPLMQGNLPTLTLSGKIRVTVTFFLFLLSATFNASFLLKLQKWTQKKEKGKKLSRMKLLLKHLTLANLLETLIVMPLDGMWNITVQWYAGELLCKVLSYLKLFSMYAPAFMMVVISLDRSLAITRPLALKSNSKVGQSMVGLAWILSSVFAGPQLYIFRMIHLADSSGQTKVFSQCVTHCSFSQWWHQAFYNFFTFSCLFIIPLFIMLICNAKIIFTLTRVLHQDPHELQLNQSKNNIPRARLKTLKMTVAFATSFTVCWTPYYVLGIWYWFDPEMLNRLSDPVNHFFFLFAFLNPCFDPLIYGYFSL
Kind of test: Binding affinity towards human gonadotropin-releasing hormone receptor (GNRHR) using GnRH peptide as radioligand.

`N[C@@H](Cn1c(=O)c(-c2ccc(C(F)(F)F)cc2Cl)cn(Cc2c(F)cccc2C(F)(F)F)c1=O)c1ccccc1`: the Ki – broadly, a measure of affinity in units of concentration, obtained from inhibition or displacement – was found to be 200 nM. With `COc1cccc(-c2cn(Cc3c(F)cccc3S(=O)(=O)N(C)C)c(=O)n(C[C@H](N)c3ccccc3)c2=O)c1F` the figure was 120 nM; with `COc1cccc(-c2cn(Cc3c(F)cccc3S(=O)(=O)C(C)C)c(=O)n(C[C@H](N)c3ccccc3)c2=O)c1F`, 30 nM; with `COc1cccc(-c2cn(Cc3c(F)cccc3S(=O)(=O)N3CCOCC3)c(=O)n(C[C@H](N)c3ccccc3)c2=O)c1F`, 1400 nM. To `CCOc1cccc(-c2cn(Cc3c(F)cccc3C(F)(F)F)c(=O)n(C[C@H](N)c3ccccc3)c2=O)c1F` belongs 1.8 nM; to `N[C@@H](Cn1c(=O)c(-c2cccc(OCC(F)(F)F)c2F)cn(Cc2c(F)cccc2C(F)(F)F)c1=O)c1ccccc1`, 8.2 nM.

The molecule `COc1cccc(-c2cn(Cc3c(F)cccc3Cl)c(=O)n(C[C@H](N)c3ccccc3)c2=O)c1F` came in with a Ki of 1.4 nM. To `COc1cccc(-c2cn(Cc3c(F)cccc3F)c(=O)n(C[C@H](N)c3ccccc3)c2=O)c1Cl` belongs 1 nM; to `COc1cccc(-c2cn(Cc3c(F)cccc3C(F)(F)F)c(=O)n(C[C@H](N)c3ccccc3)c2=O)c1Cl`, 0.45 nM; to `N[C@@H](Cn1c(=O)c(-c2ccccc2F)cn(Cc2c(F)cccc2C(F)(F)F)c1=O)c1ccccc1`, 8 nM. `COc1cccc(-c2cn(Cc3c(F)cccc3S(=O)(=O)CCO)c(=O)n(C[C@H](N)c3ccccc3)c2=O)c1F` registered a Ki of 9.1 nM. With `Cc1ccc(-c2cn(Cc3c(F)cccc3C(F)(F)F)c(=O)n(C[C@H](N)c3ccccc3)c2=O)c(Cl)c1` the figure was 2.6 nM. With `COc1cccc(-c2cn(Cc3c(F)cccc3SC)c(=O)n(C[C@H](N)c3ccccc3)c2=O)c1F` the figure was 19 nM. To `N[C@@H](Cn1c(=O)c(-c2cccc(O)c2F)cn(Cc2c(F)cccc2F)c1=O)c1ccccc1` belongs 660 nM. Turning to `CC(C)Oc1cccc(-c2cn(Cc3c(F)cccc3C(F)(F)F)c(=O)n(C[C@H](N)c3ccccc3)c2=O)c1F`, the Ki turned out to be 6.3 nM. With `CS(=O)(=O)c1cccc(C(F)(F)F)c1Cn1cc(-c2ccccc2Cl)c(=O)n(C[C@H](N)c2ccccc2)c1=O` the figure was 3100 nM. To `N[C@@H](Cn1c(=O)c(-c2ccccc2C(F)(F)F)cn(Cc2c(F)cccc2C(F)(F)F)c1=O)c1ccccc1` belongs 4 nM; to `N[C@@H](Cn1c(=O)c(-c2cccc(O)c2F)cn(Cc2c(F)cccc2C(F)(F)F)c1=O)c1ccccc1`, 18 nM.

The values above are taken from ChEMBL document CHEMBL1145245, “Uracils as potent antagonists of the human gonadotropin-releasing hormone receptor without atropisomers” (Bioorg Med Chem Lett, 2005).
